We go through one molecule from patent US12037361B2, “Methods for treating multidrug resistant breast cancer” (THE HONG KONG POLYTECHNIC UNIVERSITY, priority 2021, dated 2024).

A short description of series [1]: In vivo toxicity test in Balb/c mice. Particulars: healthy Balb/c mice, DOX 1.2 mg/kg i.v. once every two days, 10 injections. The protocol:
(P) In Vivo Toxicity Test in Balb/c Mice:
Healthy female Balb/c mice (6-8 weeks old) were randomized into 3 groups and were administered with (1) DOX 1.2 mg/kg i.v., (2) DRI-TAT-SP 25 mg/kg i.v, and (3) DOX 1.2 mg/kg+DRI-TAT-SP 25 mg/kg i.v. once every two days (q2d) for 10 injections via tail vein injection. The body weight of the mice was measured once every 2 days. Any toxicity symptoms including body weight change and behavioral changes will be monitored.

Series [2] has as its system MCF7 human breast cancer xenograft. Kind of series: In vivo efficacy study in MCF7 breast cancer xenograft model. On the procedure:
Data obtained are analyzed to evaluate treatment outcomes. Tumor doubling time is calculated using tumor volumes obtained from the end of experiment versus the tumor volumes on the first day of treatment. Tumor inhibition (%) is calculated using the tumor volumes obtained from the end of experiment. Corresponding equations of determining tumor inhibition (T/C) and tumor doubling time (Td) are provided as follows:
(Q) In Vivo Efficacy Study of DRI-TAT-SP Combined with DOX in Treating MCF7 Breast Cancer Xenograft Model:
Six- to eight-week-old female Balb/c nude mice were maintained under specific pathogen-free conditions prior to in vivo efficacy study. Each animal was implanted with a piece of […] pellet 0.72 mg, 60-day release. (Cat No. SE-121, Innovative Research of America, Sarasota, FL). Four days later, the nude mice were inserted at the both flanks with a sesame sized (around 10 mm^3) MCF-7 tumor piece originated from a tumor bulk. When the tumor reached approximately 100 mm^3 (21-28 days), the mice were randomized and administered intravenously with (1) 1×PBS, (2) DOX 1.2 mg/kg, (3) DRI-TAT-SP 25 mg/kg or (4) DOX 1.2 mg/kg+DRI-TAT-SP 25 mg/kg once every 2 days for a total of 10 injections. Tumor volume was measured using digital caliper once every 4 days. Estimated tumor volume (mm^3) was calculated as ½×length (mm)×width (mm)^2. The mouse body weights were recorded once every two days. The tumor doubling time (Td) was calculated as t×log 2/log(Vf/V0), where t, Vf and V0 stand for interval time, percentage change of tumor volume on final day and percentage change of tumor volume on initial day.

In the case of `COc1cccc2c1C(=O)c1c(O)c3c(c(O)c1C2=O)C[C@@](O)(C(=O)CO)C[C@@H]3O[C@H]1C[C@H](N)[C@H](O)[C@H](C)O1` [Doxorubicin, reference compound], in series [1], the body weight change entry is “+0.6±2.4%”. Besides, in series [2] (MCF7 xenograft nude mice, deaths/animals), the “No. of toxicity death” value is recorded as 0/8. The “tumor volume at end of study” value in series [2] (MCF7 xenograft, 20 days, DOX 1.2 mg/kg, DRI-TAT-SP 25 mg/kg) is listed as 270±73 mm^3. Moreover, the “Tumor inhibition (%)” value in series [2] (MCF7 xenograft, i.v. once every 2 days, 10 injections in 20 days, DOX 1.2 mg/kg, DRI-TAT-SP 25 mg/kg) is on record as 21.5%.
